Results from paper PMC10377643, “Exploration of Bis-Cinnamido-Polyamines as Intrinsic Antimicrobial Agents and Antibiotic Enhancers” (Biomolecules, 2023).

What was measured:
[1] = system: S. aureus; design: method as in PMID 22515429; conditions: natural product; cited from earlier work
[2] = system: C. neoformans ATCC 208821; test: Antifungal MIC, C. neoformans (CO-ADD); assay type: cell-based; conditions: Cryptococcus neoformans, ATCC208821, mean (n = 2)
[3] = system: P. aeruginosa ATCC 27853; test: Antimicrobial MIC, P. aeruginosa; assay type: cell-based; conditions: Pseudomonas aeruginosa, ATCC27853, mean (n = 3)
Outline: (§1)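 Broth susceptibility MICs against the listed ATCC strains. S. aureus and P. aeruginosa tested per a previously reported protocol; MRSA and C. albicans tested under CO-ADD (University of Queensland) standard protocols.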

[4] = system: Pseudomonas aeruginosa; design: method as in PMID 22515429; conditions: natural product; cited from earlier work
[5] = system: E. coli ATCC 25922; test: Erythromycin enhancement against E. coli; assay type: cell-based, Escherichia coli; conditions: erythromycin fixed at 10.9 µM (8 µg/mL)
Procedure: Antibiotic enhancer concentrations were determined using previously reported protocols.

[6] = system: S. aureus ATCC 25923; test: Antimicrobial MIC, S. aureus; assay type: cell-based; conditions: Staphylococcus aureus, ATCC25923, mean (n = 3)
Outline: as §1

[7] = system: P. aeruginosa ATCC 27853; test: Doxycycline enhancement against P. aeruginosa; assay type: cell-based, Pseudomonas aeruginosa; conditions: doxycycline fixed at 4.5 µM
Outline: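 A fixed doxycycline level of 4.5 μM was combined with test compounds over 3.125 to 50–100 μM against P. aeruginosa ATCC 27853. The top concentration was set by each compound's own MIC, and enhancer concentrations followed a previously reported protocol.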

[8] = Cytotoxicity assay; assay type: cell-based, human; conditions: human, HEK293 human embryonic kidney cells, mean (n = 2), read-out: Cytotoxicity (IC50), concentration of compound at 50% cytotoxicity
Procedure: Cytotoxicity assays were conducted using the protocols previously reported.

[9] = system: MRSA ATCC 43300; test: Antimicrobial MIC, MRSA (CO-ADD); assay type: cell-based, methicillin-resistant S. aureus; conditions: Staphylococcus aureus; MRSA ATCC 43300; mean (n = 2); read-out: MIC MRSA
Outline: as §1

[10] = system: C. albicans ATCC 90028; test: Antifungal MIC, C. albicans (CO-ADD); assay type: cell-based; conditions: Candida albicans, ATCC90028, mean (n = 2)
Outline: as §1

[11] = system: E. coli ATCC 25922; test: Antimicrobial MIC, E. coli; assay type: cell-based, Escherichia coli; conditions: Escherichia coli, ATCC25922, E. coli ATCC 25922; mean (n = 3)
Outline: as §1

[12] = system: human red blood cells; test: Hemolytic assay; assay type: cell-based; conditions: mean (n = 2)
Procedure: Hemolysis assays were conducted using the protocols previously reported.

Which “MIC, growth inhibition towards S. aureus” value [1] does the source give for `COc1c(Br)cc(/C=C/C(=O)NCCCNCCCCNCCCNC(=O)/C=C/c2cc(Br)c(OC)c(Br)c2)cc1Br.O=C(O)C(F)(F)F.O=C(O)C(F)(F)F` [Compound 16a, N^1,N^4-Bis(3-((E)-3-(3,5-dibromo-4-methoxyphenyl)acrylamido)propyl)butane-1,4-diaminium 2,2,2-trifluoroacetate] here?
The value was 17.5 µM.

And the MIC [2]?
Its MIC is no more than 0.23 µM.

And the MIC [3]?
The MIC was 188 µM.

And the “MIC towards Pseudomonas aeruginosa” value [4]?
Its value is 8.75 µM.

And the “Eryth/E. c: concentration required to restore erythromycin activity” value [5]?
The value was 11.7 µM.

What about the “Eryth/E. c: fold change (intrinsic MIC of test compound / combination MIC)” value [5] of the same molecule?
The value was 1 fold.

What about the MIC [6] of the same molecule?
The MIC was 5.86 µM.

What about the “Dox/P. a: concentration required to restore doxycycline activity” value [7] of the same molecule?
The value was 5.86 µM.

What about the “Dox/P. a: fold change (intrinsic MIC of test compound / combination MIC)” value [7] of the same molecule?
The value was 32 fold.

What about the IC50 [8] of the same molecule?
Its IC50 is greater than 30 µM.

And the MIC [9]?
The MIC was no more than 0.23 µM.

And the MIC [10]?
Its MIC is 30 µM.

And the MIC [11]?
Its MIC is 11.7 µM.

And the “Hemolysis (HC10), concentration of compound at 10% hemolytic activity” value [12]?
The value was no more than 0.23 µM.
